Assay results: patent US20250228243A1, “METHODS AND COMPOSITIONS FOR PPO HERBICIDE TOLERANCE” (Monsanto Technology LLC, priority 2024, published 2025)

Key:
Assay type in all cases: in vivo
Conditions in all cases: 15 days after application, 2-4 leaf stage, 0.5% v/v Mero, scale 0-100 (percentage of leaf area damaged), average of 4 replicates
[1] = system: Cotton - Inbred, PPO-Transgenic; assay: Herbicide tolerance evaluation, greenhouse, PPO-transgenic cotton expressing HemG PPO H_N90
Procedure: (§1) Plant transformation vectors were constructed for expressing a chloroplast transit peptide operably linked to the PPO H_[…] (SEQ ID NO:1) in transgenic soybean, inbred corn, hybrid corn, and cotton plants, and introduced into seed-derived explants of soybean, inbred and hybrid corn, and cotton, respectively, through Agrobacterium tumefaciens-mediated transformation using standard methods known in the art. The regenerated R0 plants were analyzed to select for events with a single copy insertion for advancement to R1 nursery for R1 seed production. Seeds of the regenerated transgenic plants described above were sown in 12-cm tall plastic pots containing standard soil (14.7% sand, 19.9% clay, 65.4% silt, and 1.8% organic matter). Transgenic cotton and corn seed were sown at a density of one seed per pot, whereas soybean was sown at a density of three seeds per pot. Plants were grown in a greenhouse with 60% relative humidity in a light cycle of 13 hour day and 11 hour night. The temperature was kept at 23° C. during the day and 12° C. at night. Herbicide tolerance of transgenic soybean, inbred corn, hybrid corn, and cotton plants, to herbicidal formulations comprising any of A1 to A3 and A7 was measured by applying respective formulations to plants at the 2-4 leaf stage (corresponding to BBCH 12-14) at dose rates of 100 or 200 g ai/ha. Methylated rapeseed oil (Mero) is used as an adjuvant and added to the spray mix for each herbicide at 0.5% v/v. Plants were visually assessed for herbicide injury at the following time points: 8 days, 15 days, 22 days after application. Unsprayed transgenic plants were used for phenotypic comparison with unsprayed wild-type plants.

[2] = system: Corn - Hybrid, Conventional; assay: Herbicide injury rating, greenhouse, conventional hybrid corn
Procedure: (§2) Seeds of the regenerated transgenic plants described above were sown in 12-cm tall plastic pots containing standard soil (14.7% sand, 19.9% clay, 65.4% silt, and 1.8% organic matter). Transgenic cotton and corn seed were sown at a density of one seed per pot, whereas soybean was sown at a density of three seeds per pot. Plants were grown in a greenhouse with 60% relative humidity in a light cycle of 13 hour day and 11 hour night. The temperature was kept at 23° C. during the day and 12° C. at night. Herbicide tolerance of transgenic soybean, inbred corn, hybrid corn, and cotton plants, to herbicidal formulations comprising any of A1 to A3 and A7 was measured by applying respective formulations to plants at the 2-4 leaf stage (corresponding to BBCH 12-14) at dose rates of 100 or 200 g ai/ha. Methylated rapeseed oil (Mero) is used as an adjuvant and added to the spray mix for each herbicide at 0.5% v/v. Plants were visually assessed for herbicide injury at the following time points: 8 days, 15 days, 22 days after application. Unsprayed transgenic plants were used for phenotypic comparison with unsprayed wild-type plants.

[3] = system: Soybean - Inbred, PPO-Transgenic; assay: Herbicide tolerance evaluation, greenhouse, PPO-transgenic soybean expressing HemG PPO H_N90
Procedure: as §1

[4] = system: Corn - Inbred, PPO-Transgenic; assay: Herbicide tolerance evaluation, greenhouse, PPO-transgenic inbred corn expressing HemG PPO H_N90
Procedure: as §1

[5] = system: Corn - Hybrid, PPO-Transgenic; assay: Herbicide tolerance evaluation, greenhouse, PPO-transgenic hybrid corn expressing HemG PPO H_N90
Procedure: as §1

[6] = system: Soybean - Inbred, Conventional; assay: Herbicide injury rating, greenhouse, conventional soybean
Procedure: as §2

[7] = system: Cotton - Inbred, Conventional; assay: Herbicide injury rating, greenhouse, conventional cotton
Procedure: as §2

[8] = system: Corn - Inbred, Conventional; assay: Herbicide injury rating, greenhouse, conventional inbred corn
Procedure: as §2

Compound	Injury rating, Cotton - Inbred PPO-Transgenic ([1]; 100 g ai/ha)	Injury rating, Cotton - Inbred PPO-Transgenic ([1]; 200 g ai/ha)	Injury rating, Corn - Hybrid Conventional ([2]; 100 g ai/ha)	Injury rating, Corn - Hybrid Conventional ([2]; 200 g ai/ha)	Injury rating, Soybean - Inbred PPO-Transgenic ([3]; 100 g ai/ha)	Injury rating, Soybean - Inbred PPO-Transgenic ([3]; 200 g ai/ha)	Injury rating, Corn - Inbred PPO-Transgenic ([4]; 100 g ai/ha)	Injury rating, Corn - Inbred PPO-Transgenic ([4]; 200 g ai/ha)	Injury rating, Corn - Hybrid PPO-Transgenic ([5]; 100 g ai/ha)	Injury rating, Corn - Hybrid PPO-Transgenic ([5]; 200 g ai/ha)	Injury rating, Soybean - Inbred Conventional ([6]; 100 g ai/ha)	Injury rating, Soybean - Inbred Conventional ([6]; 200 g ai/ha)	Injury rating, Cotton - Inbred Conventional ([7]; 100 g ai/ha)	Injury rating, Cotton - Inbred Conventional ([7]; 200 g ai/ha)	Injury rating, Corn - Inbred Conventional ([8]; 100 g ai/ha)	Injury rating, Corn - Inbred Conventional ([8]; 200 g ai/ha)
CCOC(=O)C(C)OC(=O)C1(Oc2cc(-n3c(=O)cc(C(F)(F)F)n(C)c3=O)c(F)cc2Cl)CC1 (stereo not shown) [Compound A1, 1-ethoxy-1-oxopropan-2-yl 1-{2-chloro-4-fluoro-5-[3-methyl-2,6-dioxo-4-(trifluoromethyl)-3,6-dihydropyrimidin-1 (2H)-yl]phenoxy}cyclopropanecarboxylate]	0	0	100	100	0	0	0	0	0	0	100	100	100	100	100	100
CC(OC(=O)C1(Oc2cc(-n3c(=O)cc(C(F)(F)F)n(C)c3=O)c(F)cc2Cl)CC1)C(=O)O (stereo not shown) [Compound A2, 2-{[(1-{2-chloro-4-fluoro-5-[3-methyl-2,6-dioxo-4-(trifluoromethyl)-3,6-dihydropyrimidin-1 (2H)-yl]phenoxy}cyclopropyl)carbonyl]oxy}propanoic acid]	0	0	100	100	0	0	0	0	0	0	100	100	100	100	100	100
COC(=O)C(C)OC(=O)C1(Oc2cc(-n3c(=O)cc(C(F)(F)F)n(C)c3=O)c(F)cc2Cl)CC1 (stereo not shown) [Compound A3, 1-methoxy-1-oxopropan-2-yl 1-{2-chloro-4-fluoro-5-[3-methyl-2,6-dioxo-4-(trifluoromethyl)-3,6-dihydropyrimidin-1 (2H)-yl]phenoxy}cyclopropanecarboxylate]	0	0	100	100	0	0	0	0	0	0	100	100	100	100	100	100
C=CCOC(=O)C(C)OC(=O)C1(Oc2cc(-n3c(=O)cc(C(F)(F)F)n(C)c3=O)c(F)cc2Cl)CC1 (stereo not shown) [Compound A7, 1-(allyloxy)-1-oxopropan-2-yl 1-{2-chloro-4-fluoro-5-[3-methyl-2,6-dioxo-4-(trifluoromethyl)-3,6-dihydropyrimidin-1 (2H)-yl]phenoxy}cyclopropanecarboxylate.]	0	0	100	100	0	0	0	0	0	0	100	100	100−	100	100	100
